What was measured:
MGC-803 cells = assay: MTT antiproliferative assay, MGC-803 cells; assay type: cell-based, human; details: exposure for 48 h
Protocol: (§1) The in vitro antiproliferative activities of new target compounds 6a–6g, 9a–9i, 10a–10j, 11a–11j, and 14a–14d were evaluated against four human cancer cell lines (MGC-803, PC-3, HCT-116, and MCF-7) using MTT assay and 5-FU as a positive drug. The following Tables 1–[4] depicted the results of in vitro antiproliferative activity.
(§2) Cell lines used were cultured in humidified incubator in a humidified atmosphere of 5% CO2 and 95% air. The RPMI-1640 medium was supplemented with 10% foetal bovine serum, penicillin (100 U/ml) and streptomycin (0.1 mg/ml).
(§3) Cell lines were seeded into 96-well plates and incubated for 24 h. Then cells were treated with different concentrations of compounds. And after another 48 h, MTT reagent (20 μL per well) was added to each well and then incubated at 37 °C for 4 h. After the suspension was discarded, formazan was then dissolved with DMSO. Absorbencies of formazan solution were measured at 490 nm. The IC50 values of tested compounds were calculated by SPSS version 17.0.

HCT-116 cells = assay: MTT antiproliferative assay, HCT-116 cells; assay type: cell-based, human; details: exposure for 48 h
Protocol: as §1, §2, §3

PC-3 cells = assay: MTT antiproliferative assay, PC-3 cells; assay type: cell-based, human; details: Homo sapiens, PC-3, exposure for 48 h
Protocol: as §1, §2, §3

MCF-7 cells = assay: MTT antiproliferative assay, MCF-7 cells; assay type: cell-based, human; details: exposure for 48 h
Protocol: as §1, §2, §3

SGC-7901 cells = assay: MTT antiproliferative assay, SGC-7901 gastric cancer cells; assay type: cell-based; details: Homo sapiens, SGC-7901, exposure for 48 h
Protocol: (§4) Furthermore, MGC-803 cells were more sensitive to the compounds than HCT-116, PC-3 cells MCF-7 cells. Moreover, we chose two other common gastric cancer cell lines (HGC-27 and SGC-7901) and another two normal cells GES-1 and HUEVC cells to examine for the inhibitory activity of compound 9i.
as §2, §3

HUEVC cells = assay: MTT antiproliferative assay, HUEVC normal cells; assay type: cell-based; details: exposure for 48 h, non-cancer cell line
Protocol: as §4, §2, §3

[1] = tested on: MGC-803 and SGC-7901 cells; assay: Colony formation assay in gastric cancer cells; assay type: cell-based; details: 150 nM, 7 days
Description: Because of the potent inhibitory activity on cell viability of compound 9i, we next explored the effects of compound 9i on cell proliferation in MGC-803 and SGC-7901 cells.
Figure 6. Gastric cancer cell proliferation inhibition inhibited by 9i. Density ratios relative to β-Actin were shown on the top of each Western blotting band. (A,B) Cell growth curves of in MGC-803 and SGC-7901 cells after the treatment with indicated concentrations of 9i for different hours; (C,D). Gastric cancer cell colony formation, cells were treated for 7 days; (E) Cell cycle distribution of MGC-803 and SGC-7901 after the treatment with indicated concentrations of 9i for 24 h; (F,G) Cell cycle related proteins in gastric cancer cells after the treatment with indicated concentrations of 9i for 24 h.
In this work, some other assays including colony formation assay, cell apoptosis assay and immunostaining assay were referred to our previous work[35]^,[36].

MGC-803 xenograft tumour = assay: MGC-803 xenograft model; assay type: in vivo, nude mice
Protocol: When the tumour volume reached 100 mm^3, vehicle control, compound 9i, and 5-FU were administered by daily intraperitoneal injection for 21 consecutive days. During the treatment, tumour volume and body weight of nude mice were measured every 3 days from the beginning of treatment. […] Tumour weight was measured after the execution of animals, the inhibition rate of the compound 9i treated group was over 60% than the vehicle group (Figures 7(B,C)). Tunnel staining was used for cell apoptosis detection, as shown in Figure 7(D), compound 9i increased the level of cell apoptosis. […] Next, the levels of YAP, Bcl-2, c-Myc, Ki67, and cleaved PARP in tissues were detected using immunochemistry to validate the results. […] The data indicated compound 9i inhibited YAP to inhibit the tumour in vivo.
A human gastric cancer subcutaneous transplantation tumour model was established with MGC-803 cells. After the tumour volume reaches 100 mm3 the MGC-803 bearing mice were randomised into 3 groups and intraperitoneal injection with normal saline or drugs continuously for 21 days. Tumour volume was measured every 3 days (Length × Width2/2). Mice were executed after treatment. 500 μL blood samples was collected each mouse, samples were then centrifuged at 2000 g for 10 min for biochemistry analysis. Tumour and organs tissues were harvested for H&E staining or immunochemistry detection. The experiments in the study were performed comply with the protocols approved by the Institutional Animal Care and Use Committee, Zhengzhou University.

[2] = tested on: P38, ERK, AKT, mTOR and Wnt pathways; assay: Activity on P38, ERK, AKT, mTOR and Wnt pathways in cells; assay type: cell-based; details: 20, 40 and 60 nM, 48 hours
Description: In this work, compound 9i was design and synthesized by SAR study of our reported tertiary amide derivatives compound 1 and compound 2. Therefore, we tested the influence of compound 9i on tubulin polymerization and AKT/mTOR and ERK […]
influence on tubulin polymerization and P38, ERK, AKT, mTOR and Wnt pathways . […]
pathway. Therefore, we here reported N-sulfonamide-quinazoline derivatives as novel anti-gastric cancer agents via activating the Hippo signaling pathway in vitro and in […]
Supporting Figure S1. A. Activity of compound 9i on tubulin polymerization . Tubulin polymerization extracellular, concentrations of Paclitaxel, Colchicine and 9i were 3 μmol/L; Activity of compound 9i on P38, ERK, AKT, mTOR and Wnt pathways, cells were incubated with […]
(1 picture or pasted object on this page, not shown here)

Structure (SMILES): COc1ccc(S(=O)(=O)N(Cc2nc(C)c3ccccc3n2)c2cc(OC)c(OC)c(OC)c2)cc1 [Compound 9i, 4-Methoxy-N-((4-methylquinazolin-2-yl)methyl)-N-(3,4,5-trimethoxyphenyl) benzene-sulfonamide]
- IC50 (MGC-803 cells; Homo sapiens, MGC-803, 48 h): 360 ± 20 nM
- IC50 (MGC-803 cells): 363 nM
- IC50 (HCT-116 cells; Homo sapiens, HCT-116, 48 h): 708 nM
- IC50 (HCT-116 cells): 700 ± 40 nM
- IC50 (PC-3 cells): 1040 ± 130 nM
- IC50 (MCF-7 cells; Homo sapiens, MCF7, 48 h): 816 nM
- IC50 (MCF-7 cells): 810 ± 60 nM
- IC50 (SGC-7901 cells): 376 nM
- IC50 (HUEVC cells): 26200 nM
- colony formation [1]: significantly decreased
- tumour growth (tumour volume) (MGC-803 xenograft tumour; daily intraperitoneal injection for 21 days): inhibited tumour growth in vivo
- tumour weight inhibition rate (MGC-803 xenograft tumour; daily intraperitoneal injection for 21 days, versus vehicle group): over 60%
- expression of YAP, Bcl-2 and c-Myc in tumour tissues (MGC-803 xenograft tumour; tumour tissues after 21 days treatment): significantly down-regulated
- influence on P38, ERK, AKT, mTOR and Wnt pathways [2]: no strong influence

Source: publication PMC8386742, “Discovery of N-aryl sulphonamide-quinazoline derivatives as anti-gastric cancer agents in vitro and in vivo via activating the Hippo signalling pathway” (Journal of Enzyme Inhibition and Medicinal Chemistry, 2021)
